Laboratory results taken from PubChem BioAssay (NCI).
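How tested: cells in 96-well plates exposed to compound for 48 hours at five concentrations. Abbreviation: GI50, concentration required for 50% inhibition of growth. TGI is the concentration that stops growth completely.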

Legend:
Test in all cases: NCI tumour cell line growth inhibition, 48 h
[1] = system: 786-0 renal
[2] = system: A498 renal
[3] = system: A549 NSCLC
[4] = system: ACHN renal
[5] = system: BT-549 breast
[6] = system: CAKI-1 renal
[7] = system: CCRF-CEM leukemia
[8] = system: COLO 205 colon
[9] = system: DU-145 prostate
[10] = system: EKVX NSCLC
[11] = system: HCC-2998 colon
[12] = system: HCT-116 colon
[13] = system: HCT-15 colon
[14] = system: HL-60(TB) leukemia
[15] = system: HOP-62 NSCLC
[16] = system: HOP-92 NSCLC
[17] = system: HT29 colon
[18] = system: K-562 leukemia
[19] = system: KM12 colon
[20] = system: LOX IMVI melanoma
[21] = system: MALME-3M melanoma
[22] = system: MCF7 breast
[23] = system: MDA-MB-231 breast
[24] = system: MDA-MB-435
[25] = system: MOLT-4 leukemia
[26] = system: NCI-H226 lung
[27] = system: NCI-H23 lung
[28] = system: NCI-H460 lung
[29] = system: NCI/ADR-RES ovarian
[30] = system: OVCAR-3 ovarian
[31] = system: OVCAR-4 ovarian
[32] = system: OVCAR-5 ovarian
[33] = system: OVCAR-8 ovarian
[34] = system: PC-3 prostate
[35] = system: RPMI-8226 leukemia
[36] = system: RXF 393 renal
[37] = system: SF-268 CNS
[38] = system: SF-295 CNS
[39] = system: SF-539 CNS
[40] = system: SK-MEL-2 melanoma
[41] = system: SK-MEL-28 melanoma
[42] = system: SK-MEL-5 melanoma
[43] = system: SK-OV-3 ovarian
[44] = system: SN12C renal
[45] = system: SNB-19 CNS
[46] = system: SNB-75 CNS
[47] = system: SR leukemia
[48] = system: SW-620 colon
[49] = system: T-47D breast
[50] = system: TK-10 renal
[51] = system: U251 CNS
[52] = system: UACC-257 melanoma
[53] = system: UACC-62 melanoma
[54] = system: UO-31 renal
[55] = system: HS 578T breast
[56] = system: IGROV1 ovarian
[57] = system: M14 melanoma
[58] = system: NCI-H522 lung

Cn1c(-c2c(N)n(Cc3ccc(C(F)(F)F)cc3)c3nc(C#N)c(C#N)nc23)nc2ccccc21
GI50 [1]: 18.3 µM
TGI [1]: 40.2 µM
GI50 [2]: 5.92 µM
TGI [2]: 25.3 µM
GI50 [3]: 32.8 µM
TGI [3]: > 100 µM
GI50 [4]: 22 µM
TGI [4]: > 100 µM
GI50 [5]: 20.8 µM
TGI [5]: 86.6 µM
GI50 [6]: 17.4 µM
TGI [6]: 57.3 µM
GI50 [7]: 17.2 µM
TGI [7]: 45.7 µM
GI50 [8]: 18.3 µM
TGI [8]: 34.1 µM
GI50 [9]: 25.3 µM
TGI [9]: 65.8 µM
GI50 [10]: 13.8 µM
TGI [10]: > 100 µM
GI50 [11]: 24.5 µM
TGI [11]: 56.4 µM
GI50 [12]: 13.1 µM
TGI [12]: 26.9 µM
GI50 [13]: 20.3 µM
TGI [13]: > 100 µM
GI50 [14]: 16.7 µM
TGI [14]: 39.3 µM
GI50 [15]: 14.8 µM
TGI [15]: 33.2 µM
GI50 [16]: 6.71 µM
TGI [16]: 38.3 µM
GI50 [17]: 24.4 µM
TGI [17]: 73.1 µM
GI50 [18]: 13.4 µM
TGI [18]: 44.6 µM
GI50 [19]: 18.2 µM
TGI [19]: 38.2 µM
GI50 [20]: 14.8 µM
TGI [20]: 30.2 µM
GI50 [21]: 21.9 µM
TGI [21]: 63.6 µM
GI50 [22]: 16 µM
TGI [22]: 57.4 µM
GI50 [23]: 14.8 µM
TGI [23]: 31.8 µM
GI50 [24]: 20.7 µM
TGI [24]: 49.2 µM
GI50 [25]: 12.8 µM
TGI [25]: 40.5 µM
GI50 [26]: 17.2 µM
TGI [26]: 36.2 µM
GI50 [27]: 24.4 µM
TGI [27]: 70.2 µM
GI50 [28]: 14.5 µM
TGI [28]: 40.3 µM
GI50 [29]: 30.2 µM
TGI [29]: > 100 µM
GI50 [30]: 6.44 µM
TGI [30]: 22.3 µM
GI50 [31]: 32.7 µM
TGI [31]: > 100 µM
GI50 [32]: 19.8 µM
TGI [32]: 44.2 µM
GI50 [33]: 32 µM
TGI [33]: 97.5 µM
GI50 [34]: 6.95 µM
TGI [34]: 69.6 µM
GI50 [35]: 5.69 µM
TGI [35]: 26.4 µM
GI50 [36]: 11.3 µM
TGI [36]: 25.3 µM
GI50 [37]: 19.7 µM
TGI [37]: 56.5 µM
GI50 [38]: 11.2 µM
TGI [38]: 29.8 µM
GI50 [39]: 19.9 µM
TGI [39]: 42.8 µM
GI50 [40]: 19.5 µM
TGI [40]: 60.3 µM
GI50 [41]: 14.3 µM
TGI [41]: 29.1 µM
GI50 [42]: 16.3 µM
TGI [42]: 31.5 µM
GI50 [43]: 34.7 µM
TGI [43]: > 100 µM
GI50 [44]: 24.2 µM
TGI [44]: 71.6 µM
GI50 [45]: 11.7 µM
TGI [45]: 73 µM
GI50 [46]: 17 µM
TGI [46]: 78.3 µM
GI50 [47]: 20.6 µM
TGI [47]: 47.3 µM
GI50 [48]: 19.5 µM
TGI [48]: 42.2 µM
GI50 [49]: 8.76 µM
TGI [49]: 74.7 µM
GI50 [50]: 23.6 µM
TGI [50]: 80.6 µM
GI50 [51]: 12.5 µM
TGI [51]: 30.4 µM
GI50 [52]: 28.1 µM
TGI [52]: 65.2 µM
GI50 [53]: 11.2 µM
TGI [53]: 25.5 µM
GI50 [54]: 21.7 µM
TGI [54]: > 100 µM

Cc1cccc(NC2=C(Cl)C(=O)N(Cc3ccc(Cl)cc3)C2=O)c1
GI50 [1]: 2.16 µM
TGI [1]: 14.8 µM
GI50 [2]: 2 µM
TGI [2]: 5.14 µM
GI50 [3]: 12.5 µM
TGI [3]: 34.2 µM
GI50 [6]: 4.61 µM
TGI [6]: 24.6 µM
GI50 [7]: 0.214 µM
TGI [7]: 1.78 µM
GI50 [8]: 3.08 µM
TGI [8]: 15 µM
GI50 [9]: 9.97 µM
TGI [9]: 60.2 µM
GI50 [10]: 7.15 µM
TGI [10]: 27.1 µM
GI50 [12]: 2.94 µM
TGI [12]: 10.8 µM
GI50 [14]: 4.83 µM
TGI [14]: 20.3 µM
GI50 [15]: 3.88 µM
TGI [15]: 15 µM
GI50 [55]: 7.35 µM
TGI [55]: 37.3 µM
GI50 [56]: 2.25 µM
TGI [56]: 12.1 µM
GI50 [18]: 3.63 µM
TGI [18]: 13.9 µM
GI50 [19]: 3.27 µM
TGI [19]: 16.9 µM
GI50 [20]: 2.88 µM
TGI [20]: 16 µM
GI50 [57]: 4.33 µM
TGI [57]: 19.9 µM
GI50 [21]: 3.25 µM
TGI [21]: 22.7 µM
GI50 [22]: 3.17 µM
TGI [22]: > 100 µM
GI50 [23]: 2.27 µM
TGI [23]: 8.77 µM
GI50 [24]: 4.74 µM
TGI [24]: 19 µM
GI50 [25]: 3.14 µM
TGI [25]: 12.4 µM
GI50 [26]: 1.2 µM
TGI [26]: 8.04 µM
GI50 [27]: 1.64 µM
TGI [27]: 10.7 µM
GI50 [28]: 2.81 µM
TGI [28]: 33.9 µM
GI50 [58]: 3.09 µM
TGI [58]: 13.1 µM
GI50 [29]: 1.56 µM
TGI [29]: 8.03 µM
GI50 [30]: 7.19 µM
TGI [30]: 21 µM
GI50 [31]: 3.84 µM
TGI [31]: 40.4 µM
GI50 [32]: 28 µM
TGI [32]: 74.5 µM
GI50 [33]: 6.46 µM
TGI [33]: 23.8 µM
GI50 [34]: 2.1 µM
TGI [34]: 8.67 µM
GI50 [35]: 1.07 µM
TGI [35]: 3.2 µM
GI50 [36]: 7.72 µM
TGI [36]: 27.6 µM
GI50 [37]: 4.93 µM
TGI [37]: > 100 µM
GI50 [38]: 5.8 µM
TGI [38]: 27.4 µM
GI50 [39]: 2.11 µM
TGI [39]: 13.6 µM
GI50 [41]: 3.88 µM
TGI [41]: 22.8 µM
GI50 [42]: 2.23 µM
TGI [42]: 7.76 µM
GI50 [43]: 3.51 µM
TGI [43]: 18.7 µM
GI50 [44]: 4.37 µM
TGI [44]: 43.6 µM
GI50 [45]: 2.94 µM
TGI [45]: 25.8 µM
GI50 [47]: 1.79 µM
TGI [47]: 4.88 µM
GI50 [48]: 2.23 µM
TGI [48]: 12.9 µM
GI50 [49]: 3.47 µM
TGI [49]: 28.9 µM
GI50 [50]: 3.8 µM
TGI [50]: 21 µM
GI50 [51]: 4.08 µM
TGI [51]: > 100 µM
GI50 [52]: 16.6 µM
TGI [52]: 47.9 µM
GI50 [53]: 4.89 µM
TGI [53]: 29.9 µM
GI50 [54]: 11.9 µM
TGI [54]: > 100 µM

COc1ccc(F)cc1/C=C/C(=O)/C=C(/C=C/c1cc(F)ccc1OC)OB(F)F
GI50 [4]: 1.02 µM
TGI [4]: 2.37 µM
GI50 [6]: 1.14 µM
TGI [6]: 2.44 µM
GI50 [7]: 0.261 µM
TGI [7]: 0.679 µM
GI50 [9]: 2.06 µM
TGI [9]: > 100 µM
GI50 [12]: 1.39 µM
TGI [12]: 4.21 µM
GI50 [13]: 1.27 µM
TGI [13]: 2.93 µM
GI50 [16]: 2.04 µM
TGI [16]: 4.62 µM
GI50 [55]: 3.13 µM
TGI [55]: > 100 µM
GI50 [17]: 1.85 µM
TGI [17]: 4.79 µM
GI50 [56]: 2.04 µM
TGI [56]: 6.05 µM
GI50 [20]: 1.25 µM
TGI [20]: 2.56 µM
GI50 [21]: 2.05 µM
TGI [21]: 9.12 µM
GI50 [23]: 2.17 µM
TGI [23]: 6.1 µM
GI50 [24]: 1.47 µM
TGI [24]: 5.02 µM
GI50 [25]: 0.321 µM
TGI [25]: 4.75 µM
GI50 [27]: 1.46 µM
TGI [27]: 4.05 µM
GI50 [29]: 1.66 µM
TGI [29]: 6.41 µM
GI50 [31]: 2.33 µM
TGI [31]: > 100 µM
GI50 [33]: 0.513 µM
TGI [33]: 5.23 µM
GI50 [34]: 1.5 µM
TGI [34]: 3.89 µM
GI50 [39]: 2.4 µM
TGI [39]: 6.68 µM
GI50 [40]: 2.55 µM
TGI [40]: 7 µM
GI50 [43]: 3.48 µM
TGI [43]: > 100 µM
GI50 [44]: 1.64 µM
TGI [44]: 4.83 µM
GI50 [46]: 1.61 µM
TGI [46]: 4.86 µM
GI50 [47]: 0.481 µM
TGI [47]: 23.4 µM
GI50 [49]: 2.17 µM
TGI [49]: 96.6 µM
GI50 [52]: 2.03 µM
TGI [52]: 7.48 µM
GI50 [53]: 1.27 µM
TGI [53]: 2.9 µM
GI50 [54]: 1.13 µM
TGI [54]: 2.47 µM
